Laboratory results taken from patent US20220251141A1, “IMMUNOMODULATORS” (Bristol-Myers Squibb Company, priority 2019, published 2022).
Numbered stars: 1 amine (or outer) side, 2 acyl side, 3 side chain; on linkers, the order of the positions; unused ones are H or OH. Bridge positions count the residues as written; N and C are the ends. Square brackets hold non-standard residues; d marks the D form. Side chains are listed from the residue outwards. Peptide text beside a SMILES is read from it. * marks the point of attachment. Trp(1-CH2CO2Me) = COC(=O)Cn1cc(C[C@H](N)C(=O)O)c2ccccc21; Trp(1-CH2COOH) = N[C@@H](Cc1cn(CC(=O)O)c2ccccc12)C(=O)O; Phe(4-F) = N[C@@H](Cc1ccc(F)cc1)C(=O)O; Hyp = O=C(O)[C@@H]1C[C@@H](O)CN1; NMeNle = CCCC[C@H](NC)C(=O)O; Pen = CC(C)(S)[C@H](N)C(=O)O; NMeC = CN[C@@H](CS)C(=O)O; Pip = O=C(O)[C@@H]1CCCCN1; NMeA = CN[C@@H](C)C(=O)O; Dab = NCC[C@H](N)C(=O)O; Dap = NC[C@H](N)C(=O)O; NH(heptyl) = CCCCCCCN*; Boc = CC(C)(C)OC(=O)*; CO = O=C([*:1])[*:2]; Piv = CC(C)(C)C(=O)*

Molecular target: T1, PD-1/PD-L1 (Homo sapiens, UniProt Q9NZQ7)
T1 construct: TVMV protease site linker (C); made in house; host or cells: HEK293T cells
Assay: PD-1/PD-L1 Homogenous Time-Resolved Fluorescence (HTRF) binding assay
Details: PD-L1-His 10 nM final, PD-1-Ig 20 nM final; inhibitors pre-incubated with PD-L1-His for 15 m
Outline: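 Compounds pre-incubated 15 min with human PD-L1(18-239)-His (10 nM final), then PD-1(25-167)-Ig (20 nM final) added for 15 min, in dPBS with 0.1% BSA and 0.05% Tween-20. Eu-cryptate anti-Ig (1 nM) and APC anti-His (20 nM) added, 30 min equilibration, 665/620 nm ratio read; IC50 reported.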

SMILES	IC50 [µM]
CCCC[C@H]1C(=O)N(C)[C@@H](CCCC)C(=O)N[C@@H](CC(C)C)C(=O)N[C@H](C(N)=O)C(C)(C)SCC(=O)N[C@@H](Cc2ccc(F)cc2)C(=O)N2CCCC[C@H]2C(=O)N[C@@H](CC(N)=O)C(=O)N2CCC[C@H]2C(=O)N[C@@H](CNC(=O)C(C)(C)C)C(=O)N[C@@H](CC(C)C)C(=O)N2C[C@H](O)C[C@H]2C(=O)N[C@@H](Cc2c[nH]c3ccccc23)C(=O)N[C@@H](CCN)C(=O)N[C@@H](Cc2cn(CC(=O)O)c3ccccc23)C(=O)N1C [Example 20010] ({CH2CO}-[Phe(4-F)][Pip]NP[Dap](Piv)L[Hyp]W[Dab][Trp(1-CH2COOH)][NMeNle][NMeNle]L[Pen]-NH2; thioether N-14)	0.0049
CCCC[C@H]1C(=O)N(C)[C@@H](CCCC)C(=O)N[C@@H](CC(C)C)C(=O)N[C@H](C(N)=O)CSCC(=O)N[C@@H](Cc2ccc(F)cc2)C(=O)N2CCCC[C@H]2C(=O)N[C@@H](CC(=O)O)C(=O)N2CCC[C@H]2C(=O)N[C@@H](CNC(=O)OC(C)(C)C)C(=O)N[C@@H](CC(C)C)C(=O)N2C[C@H](O)C[C@H]2C(=O)N[C@@H](Cc2c[nH]c3ccccc23)C(=O)N[C@@H](CCNC(=O)OC(C)(C)C)C(=O)N[C@@H](Cc2cn(CC(=O)O)c3ccccc23)C(=O)N1C [Example 20020] ({CH2CO}-[Phe(4-F)][Pip]DP[Dap](Boc)L[Hyp]W[Dab](Boc)[Trp(1-CH2COOH)][NMeNle][NMeNle]LC-NH2; thioether N-14)	0.0069
CCCC[C@H]1C(=O)N(C)[C@@H](CCCC)C(=O)N[C@@H](CCC(=O)O)C(=O)N[C@H](C(N)=O)CSCC(=O)N[C@@H](Cc2ccc(F)cc2)C(=O)N2CCCC[C@H]2C(=O)N[C@@H](CC(N)=O)C(=O)N2CCC[C@H]2C(=O)N[C@@H](CNC(=O)C(C)(C)C)C(=O)N[C@@H](CC(C)C)C(=O)N2C[C@H](O)C[C@H]2C(=O)N[C@@H](Cc2c[nH]c3ccccc23)C(=O)N[C@@H](CCNC(=O)C(C)(C)C)C(=O)N[C@@H](Cc2cn(CC(=O)O)c3ccccc23)C(=O)N1C [Example 20030] ({CH2CO}-[Phe(4-F)][Pip]NP[Dap](Piv)L[Hyp]W[Dab](Piv)[Trp(1-CH2COOH)][NMeNle][NMeNle]EC-NH2; thioether N-14)	0.0078
CCCC[C@H]1C(=O)N(C)[C@@H](CCCC)C(=O)N[C@@H](CC(C)C)C(=O)N[C@H](C(N)=O)CSCC(=O)N[C@@H](Cc2ccc(F)cc2)C(=O)N2CCCC[C@H]2C(=O)N[C@@H](CC(=O)O)C(=O)N2CCC[C@H]2C(=O)N[C@@H](CNC(=O)C(C)(C)C)C(=O)N[C@@H](CC(C)C)C(=O)N2CCC[C@H]2C(=O)N[C@@H](Cc2c[nH]c3ccccc23)C(=O)N[C@@H](CCNC(=O)C(C)(C)C)C(=O)N[C@@H](Cc2cn(CC(=O)O)c3ccccc23)C(=O)N1C [Example 20040] ({CH2CO}-[Phe(4-F)][Pip]DP[Dap](Piv)LPW[Dab](Piv)[Trp(1-CH2COOH)][NMeNle][NMeNle]LC-NH2; thioether N-14)	0.0083

More lines, now with the values ahead:

IC50 [µM]	SMILES
0.024	CCCCCCCNC(=O)NCC[C@@H]1NC(=O)[C@H](Cc2c[nH]c3ccccc23)NC(=O)[C@@H]2C[C@@H](O)CN2C(=O)[C@H](CC(C)C)NC(=O)[C@H](CNC(=O)NCCCCCCC)NC(=O)[C@@H]2CCCN2C(=O)[C@H](CC(N)=O)NC(=O)[C@H](C)N(C)C(=O)[C@H](Cc2ccc(O)cc2)NC(=O)CSC[C@@H](C(=O)NCC(N)=O)NC(=O)[C@H](CC(C)C)NC(=O)[C@H](CCCC)N(C)C(=O)[C@H](CCCC)N(C)C(=O)[C@H](Cc2cn(CC(=O)OC)c3ccccc23)NC1=O [Example 2003] ({CH2CO}-Y[NMeA]NP[Dap]([CO-NH(heptyl)])L[Hyp]W[Dab]([CO-NH(heptyl)])[Trp(1-CH2CO2Me)][NMeNle][NMeNle]LCG-NH2; thioether N-14)
0.052	CCCC[C@H]1C(=O)N(C)[C@@H](CCCC)C(=O)N[C@@H](CC(C)C)C(=O)N(C)[C@H](C(N)=O)CSCC(=O)N[C@@H](Cc2ccc(F)cc2)C(=O)N2CCCC[C@H]2C(=O)N[C@@H](CC(=O)N(C)C)C(=O)N2CCC[C@H]2C(=O)N[C@@H](Cc2c[nH]cn2)C(=O)N[C@@H](CC(C)C)C(=O)N2C[C@H](O)C[C@H]2C(=O)N[C@@H](Cc2c[nH]c3ccccc23)C(=O)N[C@@H](CO)C(=O)N[C@@H](Cc2cn(CC(=O)O)c3ccccc23)C(=O)N1C [Example 10002] ({CH2CO}-[Phe(4-F)][Pip]D(NMe2)PHL[Hyp]WS[Trp(1-CH2COOH)][NMeNle][NMeNle]L[NMeC]-NH2; thioether N-14)
0.012	CCCC[C@H]1C(=O)N(C)[C@@H](CCCC)C(=O)N[C@@H](CC(C)C)C(=O)N(C)[C@H](C(N)=O)CSCC(=O)N[C@@H](Cc2ccc(F)cc2)C(=O)N2CCCC[C@H]2C(=O)N[C@@H](CC(=O)O)C(=O)N2CCC[C@H]2C(=O)N[C@@H](CN)C(=O)N[C@@H](CC(C)C)C(=O)N2C[C@H](O)C[C@H]2C(=O)N[C@@H](Cc2c[nH]c3ccccc23)C(=O)N[C@@H](CCN)C(=O)N[C@@H](Cc2cn(CC(=O)O)c3ccccc23)C(=O)N1C [Example 10003] ({CH2CO}-[Phe(4-F)][Pip]DP[Dap]L[Hyp]W[Dab][Trp(1-CH2COOH)][NMeNle][NMeNle]L[NMeC]-NH2; thioether N-14)
0.011	CCCC[C@H]1C(=O)N(C)[C@@H](CCCC)C(=O)N[C@@H](CC(C)C)C(=O)N(C)[C@H](C(N)=O)CSCC(=O)N[C@@H](Cc2ccc(F)cc2)C(=O)N2CCCC[C@H]2C(=O)N[C@@H](CC(=O)O)C(=O)N2CCC[C@H]2C(=O)N[C@@H](Cc2c[nH]cn2)C(=O)N[C@@H](CC(C)C)C(=O)N2C[C@H](O)C[C@H]2C(=O)N[C@@H](Cc2c[nH]c3ccccc23)C(=O)N[C@@H](CO)C(=O)N[C@@H](Cc2cn(CC(=O)O)c3ccccc23)C(=O)N1C [Example 10004] ({CH2CO}-[Phe(4-F)][Pip]DPHL[Hyp]WS[Trp(1-CH2COOH)][NMeNle][NMeNle]L[NMeC]-NH2; thioether N-14)
0.0104	CCCC[C@H]1C(=O)N(C)[C@@H](CCCC)C(=O)N[C@@H](CC(C)C)C(=O)N[C@H](C(N)=O)CSCC(=O)N[C@@H](Cc2ccc(F)cc2)C(=O)N2CCCC[C@H]2C(=O)N[C@@H](CC(=O)O)C(=O)N2CCC[C@H]2C(=O)N[C@@H](CNC(=O)C(C)(C)C)C(=O)N[C@@H](CC(C)C)C(=O)N2C[C@H](O)C[C@H]2C(=O)N[C@@H](Cc2c[nH]c3ccccc23)C(=O)N[C@@H](CCN)C(=O)N[C@@H](Cc2cn(CC(=O)O)c3ccccc23)C(=O)N1C [Example 20050] ({CH2CO}-[Phe(4-F)][Pip]DP[Dap](Piv)L[Hyp]W[Dab][Trp(1-CH2COOH)][NMeNle][NMeNle]LC-NH2; thioether N-14)
0.0104	CCCC[C@H]1C(=O)N(C)[C@@H](CCCC)C(=O)N[C@@H](CC(C)C)C(=O)N[C@H](C(N)=O)C(C)(C)SCC(=O)N[C@@H](Cc2ccc(F)cc2)C(=O)N2CCCC[C@H]2C(=O)N[C@@H](CC(=O)O)C(=O)N2CCC[C@H]2C(=O)N[C@@H](CNC(=O)C(C)(C)C)C(=O)N[C@@H](CC(C)C)C(=O)N2C[C@H](O)C[C@H]2C(=O)N[C@@H](Cc2c[nH]c3ccccc23)C(=O)N[C@@H](CCN)C(=O)N[C@@H](Cc2cn(CC(=O)O)c3ccccc23)C(=O)N1C [Example 20060] ({CH2CO}-[Phe(4-F)][Pip]DP[Dap](Piv)L[Hyp]W[Dab][Trp(1-CH2COOH)][NMeNle][NMeNle]L[Pen]-NH2; thioether N-14)
